Test results: PMC3885398, “Evaluation of the Antitumor Effects of BPR1J-340, a Potent and Selective FLT3 Inhibitor, Alone or in Combination with an HDAC Inhibitor, Vorinostat, in AML Cancer” (PLoS ONE, 2014)

Legend:
MOLM-13 tumor xenograft = tested on: MOLM-13 tumor xenograft; set-up: method as in PMID 22187040; conditions: 25 mg/kg, same MOLM-13 model; cited from earlier work
MOLM-13 cells = test: Apoptosis assay, Annexin V-FITC/PI flow cytometry; type: cell-based, human; conditions: MOLM-13 (FLT3-ITD-expressing cells), 300 nM, 48 hours
Method: (§1) The number of apoptotic cells was determined by fluorescence-activated cell sorting (FACS) analyses using Annexin V-FITC staining. In brief, cells were centrifuged after drug treatment and resuspended in 1× binding buffer containing 2.5 mM of calcium (Ca2+). Cells were incubated with Annexin V-FITC (Biolegend, San Diego, CA) and propidium iodide (PI) (Sigma–Aldrich, St. Louis, MO) in the dark at room temperature for 20 minutes. Next, samples were reconstituted with 1× binding buffer and subjected to flow cytometry FACS Calibus (BD Bioscience, Franklin Lakes, NJ) to analyze the Annexin V-positive population using CellQuest Pro (BD Bioscience) and FlowJo (Treestar, Inc., San Carlos, CA).
(§2) Some histone deacetylase inhibitors (HDACi) will enhance the cytotoxic activity of FLT3 inhibitor on FLT3-ITD^+ cell via degradation of FLT3-ITD and STAT5 [24], [26], [36], [37]. […]
(§3) Figure 4 The effect of BPR1J-340 and SAHA versus drug combination on AML FLT3-ITD+ cells. […] (A) Viable cells were counted after staining with trypan blue dye at indicated time point (B) At 48-hours after treatment, cells were stained with FITC-labeled annexin V and propidium iodide and percentages of apoptotic cells were analyzed by flow cytometry. […]

MV4;11 cells = test: Apoptosis assay, Annexin V-FITC/PI flow cytometry; type: cell-based, human; conditions: MV4;11 (FLT3-ITD-expressing cells), 300 nM, 48 hours
Method: as §1, §2, §3

Compound	CR, animals (MOLM-13 tumor xenograft)	rate of apoptotic cells versus control (MOLM-13 cells)	rate of apoptotic cells versus control (MV4;11 cells)
CN1CCN(c2ccc(C(=O)Nc3cc(-c4cccc(NS(=O)(=O)c5ccccc5)c4)n[nH]3)cc2)CC1 [BPR1J-097, N1-(3-3-[(phenylsulfonyl)amino]phenyl-1H-5-pyrazolyl)-4-(4-methylpiperazino)benzamide]	1/8		
O=C(CCCCCCC(=O)Nc1ccccc1)NO [SAHA, vorinostat]		did not increase	did not increase
